Data set [1] in a line: Storage stability (outer appearance change) of ointments containing molecular complex crystals. The format is physicochemical. Conditions: hydrophilic ointment containing 5%, 2 weeks in air at room temperature. From the text:
Storage Sstability (Outer Appearance Change) of Ointments Prepared by Combining Different Surfactant/Hydroquinone Molecular Complex Crystals with Ointment Bases (Simple Ointment, Hydrophilic Ointment)

The conditions of data set [2]: cited from earlier work.
The test system of the next data set is back of a person. The data set is described as follows: Visual observation test for skin reaction (patch test). The format is in vivo, human. The note with it: for skin reaction (visual): patch test, kneaded with white vaseline. How it is done: A simple surfactant and surfactant/hydroquinone molecular complex crystals were kneaded with white vaseline, and used for a patch test with a patch tester (Torii Yakuhin) on the back of a person. Skin reactions such as eruption, redness, edema or papules were visually noted 48 hours after applying each patch. Skin reactions were also confirmed after 72 hours. The samples used for the patch test were as follows (where the percentage values indicate the proportions of the surfactant or molecular complex crystals).

We go through 2 compounds from patent US20060140888A1, “Whitening agent containing crystalline molecular complex of hydroquinone and surfactant” (priority 2002, published 2006).

The structures appear in SMILES notation. Like-named read-outs stand apart in the source and are kept apart here.

In the case of `Oc1ccc(O)cc1` [simple hydroquinone, 1,4-benzenediol], the “outer appearance (coloration) of hydrophilic ointment” value in data set [1] was “Brown spots were confirmed”. For the same compound, the solubility result in data set [2] (in benzene) was “poorly soluble”; in data set [2] (in ether), “readily soluble”; in data set [2] (in ethyl acetate), “poorly soluble”; in data set [2] (in methanol), “readily soluble”; in data set [2] (in water), “soluble”.
For the compound `CCCCCCCCCCCCCCCC[N+](C)(C)Cc1ccccc1.[Cl-]` [No. 7, hexadecyldimethylbenzylammonium chloride], in the data set with back of a person (after 48 hours), the “overall evaluation of patch test” value is “negative” and the “skin reaction (visual)” value is given as “some redness was found at the center area”. Further, in the data set with back of a person (after 72 hours), the “overall evaluation of patch test” value was “negative” and the “skin reaction (visual)” value is “Some redness remained in the center area”.
